Entries after “also recorded” stand apart in the source; their conditions may differ.
Experiments:
Type in all cases: in vivo
[1] = test system: male DbDb Lep-deficient mice; test: Db/Db Study 1: blood glucose after insulin and/or Compound 102
Method: In the present study, male DbDb Lep-deficient mice (Harlan Laboratories) approximately 16 weeks of age were used. [table] Procedure: Mice were divided into 4 groups of 6 mice per group. Blood glucose levels were measured using Accu-Chek Aviva Glucometers (Roche Diagnostics). The times of blood glucose levels were measured up to 72 hours after administration. Glucometers were calibrated prior to each study. […] Glucose levels are reported as mg/dL. In study 1, animals were fasted for 4 hours prior to the administration of test articles and then continuously fasted through to the 8-hour time point. Animals were then provided food ad libitum until 4-hour prior to the 28-hour time point at which point they were fasted until the last blood glucose measurement time point. Data are expressed as the average±SEM. Data were analyzed by two-way ANOVA followed by post-hoc Bonferroni test. N=6/group.

[2] = test system: male DbDb Lep-deficient mice; test: Db/Db Study 2: blood glucose 24-72 hours after insulin and/or Compound 102; details: for blood glucose levels compared with vehicle controls: twenty-four hours after administration alone, insulin 1.5 units/kg or Compound 102 100 mg/kg, 18 week old db/db mice
Method: In the present study, male DbDb Lep-deficient mice (Harlan Laboratories) approximately 18 weeks of age were used. [table] Procedure: Mice were divided into 4 groups of 6 mice per group. Blood glucose levels were measured using Accu-Chek Aviva Glucometers (Roche Diagnostics). The times of blood glucose levels were measured up to 72 hours after administration. Glucometers were calibrated prior to each study. […] Glucose levels are reported as mg/dL. In study 2, animals were fasted for 4 hours prior to each blood glucose measurement time point and then returned to ad libitum food. Data are expressed as the average±SEM. Data were analyzed by two-way ANOVA followed by post-hoc Bonferroni test. N=6/group Results: A second study was conducted to repeat the findings of Compound 102 effects on insulin action in the 24-72 hours time window and specifically to follow the insulin/Compound 102 combination effect through until it returned to normal levels (i.e., that of vehicle-treated animals). In the second study, there were three differences from the first: 1) mice were 18 weeks of age at the time of study, 2) the insulin dose-level was reduced from 3 to 1.5 U/kg and 3) blood glucose levels were measured out until 72 hours after administration.

[3] = test system: streptozocin Type I diabetic male CD-1: ICR mice; test: Streptozocin Type I diabetic mice, insulin tolerance test, blood glucose
Method: In the present study, male CD-1: ICR mice (Charles River) approximately 8 weeks of age were used. Streptozocin administration to mice destroys pancreatic β-cells and is used to produce a model of Type I diabetes. In response to loss of pancreatic β-cells, mice become hyperglycemic. These mice are insulin responsive.
Streptozocin administration: Streptozocin administration to mice was conducted by a standard method. Briefly, mice were administered STZ at a dose-level of 70 mg/kg on day 1, 3 and 8. Each administration was preceded by an 18 hour fast. Mice were administered insulin (0.5 U) on days 2 and 9. On day 11, blood glucose levels were measured. Mice with blood glucose levels less than 300 mg/dL were excluded from the study. Mice were randomized to treatment groups.
Mice were tested on the insulin tolerance test on day 14 after the initial STZ administration. Mice were administered insulin (0.35U s.c.) and then 30 minutes later administered Compound 102 (100 mg/kg i.p.).
Blood glucose was measured 5, 15, 30, 60, 90, 120, 180, 240, 360, and 480 minutes after Compound 102 or vehicle administration. Blood was collected from a tail snip and drop of blood measured for glucose levels by glucometer (Accu-Chek Aviva Glucometers; Roche Diagnostics).
Data are expressed as the average±SEM. Data were analyzed by two-way ANOVA followed by post-hoc Bonferroni test. N=6/group

Cc1cccc(Oc2cnc(=O)[nH]c2)c1 [Compound 102]
effect on blood glucose levels ([1]; Compound 102 100 mg/kg alone, 100 mg/kg): did not significantly affect blood glucose levels at any time point after administration; also recorded: Small, but statistically insignificant lowering of blood glucose
blood glucose levels compared with vehicle controls [2]: not different from vehicle controls
effect on insulin action / insulin-mediated blood glucose lowering ([3]; Compound 102 100 mg/kg i.p. 30 minutes after insulin, p<0.05, p<0.001 versus insulin alone, FIG. 3, 100 mg/kg): potentiated the insulin effect; also recorded: potentiated and prolonged the actions of insulin; also recorded: potentiated and prolonged insulin-mediated blood glucose lowering
insulin-mediated blood glucose reduction to ([3]; Compound 102 100 mg/kg i.p. administered 30 minutes after insulin (0.35)): 157 mg/dL
effect on blood glucose levels ([3]; Compound 102 100 mg/kg i.p. alone, insulin depleted mice, up to 6 hours, 100 mg/kg): did not affect blood glucose levels at any time point up to 6 hours after administration
blood glucose levels still reduced up to ([3]; Compound 102 100 mg/kg i.p. in combination with insulin, time after administration): up to 6 hours

Insulin [reference compound]
time by which blood glucose levels returned to baseline levels ([1]; insulin 3 units/kg alone): ≤ 8 h
blood glucose levels ([1]; insulin 3 units/kg alone, three hours after administration, fasted 16 week old db/db mice, baseline averaged 482 mg/dL): 166.5 mg/dL
blood glucose in the insulin treated group ([2]; insulin 1.5 units/kg alone, 24-72 hours window (elevation at 24 and 36 hour time points, rebound effect)): does not show blood glucose lowering; also recorded: slightly elevated blood glucose
blood glucose levels compared with vehicle controls [2]: not different from vehicle controls
blood glucose levels ([3]; insulin alone (0.35), 90 minutes after administration, baseline 546 mg/dL): 263 mg/dL
time at which blood glucose levels returned to baseline levels ([3]; insulin alone (0.35), after administration): 4.5 h

Source: patent US20150190396A1, “TREATMENT OF TYPE I AND TYPE II DIABETES” (Melior Pharmaceuticals I, Inc., priority 2011, published 2015)
